Literature values in patent US9205054B2 (LOSAN PHARMA GMBH, priority 2005, dated 2015).
Like-named read-outs stand apart in the source and are kept apart here.

How the values were obtained:
[1] = 0.1 molar hydrochloric acid solution, after one hour

CC(C)Cc1ccc(C(C)C(=O)O)cc1 (racemic) [Ibuprofen, 2-(4-isobutylphenyl)propionic acid]
solubility (pH 1-5): under 0.1 g/l | solubility (pH 7.2): about 20 g/l | dissolved ibuprofen [1]: 10%
